Data: ChEMBL document CHEMBL1201862, “PubChem BioAssay data set” (2004)
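All cell lines were grown in 96-well plates and treated with compound for 48 hours. At the GI50, growth is halved.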 Activity calls are given as the source filed them. No stated cut-off is given here; in the data, active = GI50 up to about 1.1 µM and inactive = higher.

What was measured:
Assay in all cases: NCI-60 cell line screen, 48 h
NCI-H226 = system: NCI-H226
SF-295 = system: SF-295
COLO 205 = system: COLO 205
MDA-MB-435 = system: MDA-MB-435
HCT-15 = system: HCT-15
OVCAR-4 = system: OVCAR-4
CAKI-1 = system: CAKI-1
SNB-75 = system: SNB-75
SF-268 = system: SF-268
OVCAR-3 = system: OVCAR-3
OVCAR-5 = system: OVCAR-5
SNB-19 = system: SNB-19
ACHN = system: ACHN
UACC-257 = system: UACC-257
HOP-92 = system: HOP-92
DU-145 = system: DU-145
SF-539 = system: SF-539
SK-MEL-28 = system: SK-MEL-28
HOP-62 = system: HOP-62
HCC 2998 = system: HCC 2998

Row | SMILES | GI50 (NCI-H226) | GI50 (SF-295) | GI50 (COLO 205) | GI50 (MDA-MB-435) | GI50 (HCT-15) | GI50 (OVCAR-4) | GI50 (CAKI-1) | GI50 (SNB-75) | GI50 (SF-268) | GI50 (OVCAR-3) | GI50 (OVCAR-5) | GI50 (SNB-19) | GI50 (ACHN) | GI50 (UACC-257) | GI50 (HOP-92) | GI50 (DU-145) | GI50 (SF-539) | GI50 (SK-MEL-28) | GI50 (HOP-62) | GI50 (HCC 2998)
1 | Nc1ncc2c(n1)-c1ccccc1OC2N1CCCCC1 (configuration not stated) | > 100 µM (inactive) | > 100 µM (inactive) | > 100 µM (inactive) | > 100 µM (inactive) | > 100 µM | > 100 µM (inactive) | > 100 µM (inactive) | > 100 µM (inactive) | > 100 µM (inactive) | > 100 µM (inactive) | > 100 µM (inactive) | > 100 µM (inactive) | > 100 µM (inactive) | > 100 µM (inactive) | > 100 µM (inactive) | > 100 µM (inactive) | > 100 µM (inactive) |  |  | 
2 | O=[N+]([O-])C(=C(N1CCOCC1)N1CCOCC1)/C(Cl)=C(\Cl)Br | 27.6 µM (inactive) | > 100 µM (inactive) | 14.8 µM (inactive) |  | 15.2 µM | 18.4 µM (inactive) |  | 17.5 µM (inactive) | 23.6 µM (inactive) | 14.5 µM (inactive) | 17.1 µM (inactive) | > 100 µM (inactive) | 24.8 µM (inactive) | 17.3 µM (inactive) | 16.2 µM (inactive) | 46.6 µM (inactive) | 24.3 µM (inactive) | 17.4 µM (inactive) | > 100 µM (inactive) | > 100 µM (inactive)
3 | COC(=O)C(=O)C(C(=O)C(=O)Nc1ccc(Cl)c(Cl)c1)c1nc2ccc(C(=O)c3ccccc3)cc2nc1O (configuration not stated) | 56.4 µM (inactive) | 49.4 µM (inactive) |  | 35.4 µM (inactive) |  |  | 22.5 µM (inactive) | 28.3 µM (inactive) | 51.4 µM (inactive) | 86.7 µM (inactive) | > 100 µM (inactive) | 45.6 µM (inactive) | 46.5 µM (inactive) | > 100 µM (inactive) | > 100 µM (inactive) |  | 62.2 µM (inactive) | 85.3 µM (inactive) | 41.6 µM (inactive) | 
4 | O=C1NC(=S)NC(=O)C1=Cc1ccc2ccccc2n1 | > 100 µM (inactive) | > 100 µM (inactive) | > 100 µM (inactive) |  | > 100 µM | > 100 µM (inactive) | > 100 µM (inactive) | > 100 µM (inactive) | > 100 µM (inactive) | > 100 µM (inactive) | > 100 µM (inactive) | > 100 µM (inactive) | > 100 µM (inactive) | > 100 µM (inactive) | > 100 µM (inactive) |  | > 100 µM (inactive) | > 100 µM (inactive) | > 100 µM (inactive) | > 100 µM (inactive)
5 | O=c1[nH]c(S)nc2c1sc(=S)n2-c1ccccc1 | > 100 µM (inactive) | > 100 µM (inactive) | > 100 µM (inactive) |  | > 100 µM | > 100 µM (inactive) | > 100 µM (inactive) | 55.1 µM (inactive) | > 100 µM (inactive) | > 100 µM (inactive) | > 100 µM (inactive) | > 100 µM (inactive) | > 100 µM (inactive) | > 100 µM (inactive) | 55.3 µM (inactive) |  | > 100 µM (inactive) | > 100 µM (inactive) | > 100 µM (inactive) | > 100 µM (inactive)
6 | O=[N+]([O-])c1ccc(/N=N/c2c(O)ccc3cc(S(=O)(=O)O)ccc23)cc1 |  | > 100 µM (inactive) | > 100 µM (inactive) | > 100 µM (inactive) | > 100 µM | > 100 µM (inactive) | > 100 µM (inactive) | > 100 µM (inactive) | > 100 µM (inactive) | > 100 µM (inactive) | > 100 µM (inactive) | > 100 µM (inactive) | > 100 µM (inactive) | > 100 µM (inactive) | > 100 µM (inactive) | > 100 µM (inactive) |  | > 100 µM (inactive) | > 100 µM (inactive) | 
7 | CN1c2ccccc2C2=C(c3ccccc3)CC[C@@H](C(=O)N3C4CC5CC[C@@]4(CS3(=O)=O)C5(C)C)[C@@H]21 (some centres not stated) | > 100 µM (inactive) | > 100 µM (inactive) | > 100 µM (inactive) | > 100 µM (inactive) | > 100 µM | > 100 µM (inactive) | > 100 µM (inactive) | > 100 µM (inactive) | > 100 µM (inactive) | > 100 µM (inactive) | > 100 µM (inactive) | > 100 µM (inactive) | > 100 µM (inactive) | > 100 µM (inactive) | > 100 µM (inactive) | > 100 µM (inactive) | > 100 µM (inactive) | > 100 µM (inactive) | > 100 µM (inactive) | 
8 | CN(C)Cc1cc(C(C)(C)C)cc(C2CCCCC2)c1O | 15.7 µM (inactive) |  | 14.2 µM (inactive) | 20.3 µM (inactive) | 15.3 µM | 12.1 µM (inactive) | 19.9 µM (inactive) | 10.3 µM (inactive) | 16.8 µM (inactive) | 14.2 µM (inactive) | 17 µM (inactive) | 13 µM (inactive) | 15.5 µM (inactive) | 10.1 µM (inactive) |  | 14.7 µM (inactive) | 10.9 µM (inactive) | 13.2 µM (inactive) | 18 µM (inactive) | 
9 | CCOC(=O)c1csc(CCCCCCc2nc(C(=O)OCC)cs2)n1 | 44.9 µM (inactive) | 52.2 µM (inactive) | > 52.6 µM (inactive) |  | > 60.5 µM | > 100 µM (inactive) | > 88.7 µM (inactive) | 21.1 µM (inactive) | 34 µM (inactive) | 99.5 µM (inactive) | > 100 µM (inactive) | > 76.4 µM (inactive) | > 84.9 µM (inactive) | 34.8 µM (inactive) | > 58.2 µM (inactive) |  | > 58.3 µM (inactive) | > 38.3 µM (inactive) | > 57.1 µM (inactive) | > 100 µM (inactive)
10 | C1CN(P2(N3CC3)=NP(N3CC3)(N3CC3)=NP(N3CC3)(N3CC3)=N2)CCO1 (configuration not stated) [FOTRETAMINE] | > 85.5 µM (inactive) | 54.7 µM (inactive) | > 100 µM (inactive) |  | > 100 µM | > 100 µM (inactive) | > 100 µM (inactive) | 55.7 µM (inactive) | 47.3 µM (inactive) | > 100 µM (inactive) | > 100 µM (inactive) | > 100 µM (inactive) | 37.5 µM (inactive) | 83.8 µM (inactive) | > 100 µM (inactive) |  | 44.8 µM (inactive) | > 100 µM (inactive) | 26.6 µM (inactive) | > 100 µM (inactive)
11 | Nc1nc(N)c2cc(-c3cc4ccccc4[nH]3)ccc2n1 | 27.7 µM (inactive) | 27.6 µM (inactive) | 10.3 µM (inactive) | 18.5 µM (inactive) | 22.1 µM | 21.9 µM (inactive) | 27.4 µM (inactive) | 32.4 µM (inactive) | 22.2 µM (inactive) | 35.6 µM (inactive) | 18.6 µM (inactive) | 33 µM (inactive) | 18.9 µM (inactive) | 16.2 µM (inactive) | 12.2 µM (inactive) | 21.3 µM (inactive) | 19.5 µM (inactive) | 22.2 µM (inactive) | 30.8 µM (inactive) | 
12 | Cc1ccc2nc(NC(=O)C(=O)C(C#N)c3nc4ccccc4s3)sc2c1 (configuration not stated) | 25.1 µM (inactive) | 37.2 µM (inactive) | 18 µM (inactive) |  | 32 µM | 39 µM (inactive) | 42.2 µM (inactive) | 40.6 µM (inactive) | 51.6 µM (inactive) | 23.4 µM (inactive) | 57.5 µM (inactive) | 31.8 µM (inactive) | 42.3 µM (inactive) | 28 µM (inactive) | 26.4 µM (inactive) |  | 22.3 µM (inactive) | 51.8 µM (inactive) | 14.5 µM (inactive) | 79.8 µM (inactive)
13 | COC(=O)C1=Cc2cc(OC)c(OC)c(OC)c2[C@H](c2cc(OC)c(OC)c(OC)c2)C1C(=O)OC (some centres not stated) | > 100 µM (inactive) | > 100 µM (inactive) | > 100 µM (inactive) |  | > 100 µM | > 100 µM (inactive) | > 100 µM (inactive) | > 100 µM (inactive) | > 100 µM (inactive) | > 100 µM (inactive) | > 100 µM (inactive) | > 100 µM (inactive) | > 100 µM (inactive) | > 100 µM (inactive) | 1.73 µM (inactive) |  | > 100 µM (inactive) | > 100 µM (inactive) | > 100 µM (inactive) | > 100 µM (inactive)
14 | CC(CC(=O)CO[C@H]1[C@H](O)[C@@H](O)[C@@H](O)[C@@H]2NC(=O)c3c(cc4c(c3O)OCO4)[C@H]21)OC1OC(CO)C(O)C(O)C1O (some centres not stated) | 0.522 µM (active) | 1.12 µM (active) | 0.272 µM (active) | 0.392 µM (active) | 0.396 µM | 0.277 µM (active) | 0.857 µM (active) | 0.207 µM (active) | 0.367 µM (active) | 0.451 µM (active) | 1.26 µM (inactive) | 0.304 µM (active) | 0.444 µM (active) | 0.594 µM (active) | 0.51 µM (active) |  | 0.419 µM (active) | 0.56 µM (active) | 0.366 µM (active) | 0.218 µM (active)
15 | COc1ccc([C@H]2CC3C(=O)N(c4ccc(OC)cc4)C(=O)C3c3[nH]c4ccccc4c32)cc1 (some centres not stated) | 91 µM (inactive) | 16.7 µM (inactive) | 97.5 µM (inactive) |  | 57.4 µM | > 100 µM (inactive) | > 100 µM (inactive) | 16.1 µM (inactive) | 82 µM (inactive) | > 100 µM (inactive) | > 100 µM (inactive) | 32.1 µM (inactive) | > 100 µM (inactive) | > 100 µM (inactive) | 24 µM (inactive) |  | 20.7 µM (inactive) | 83.9 µM (inactive) | 32.7 µM (inactive) | > 100 µM (inactive)
